Test results: patent US20070021419A1, “2-Aminophenyl-4-phenylpyrimidines as kinase inhibitors” (Cyclacel Limited, priority 2003, published 2007)

Columns and labels:
Assay type in all cases: biochemical
CDK1/cyclin B = CDK1/cyclin B (Homo sapiens, UniProt P06493); assay: Kinase assay, radioactive phosphate incorporation, CDK1/cyclin B; details: 100 μM ATP, 30° C.; read-out: Kinase inhibition IC50 CDK1/cyclin B
Procedure, shortened: (§1)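 Recombinant kinase complexes (2-4 μg) with polypeptide substrate were run in pH 7.4 β-glycerophosphate/MOPS buffer, started with 15 mM MgCl2 plus 100 μM ATP including [γ-^32P]-ATP, and incubated at 30° C. Substrate-incorporated ^32P was captured on filter plates, acid-washed and scintillation-counted. Compounds were diluted from DMSO stocks into 10% DMSO buffer.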

CDK2/cyclin A = CDK2/cyclin A (Homo sapiens, UniProt P24941); assay: Kinase assay, radioactive phosphate incorporation, CDK2/cyclin A; details: 100 μM ATP, 30° C.; read-out: Kinase inhibition IC50 CDK2/cyclin A
Procedure, shortened: as §1

CDK2/cyclin E = CDK2/cyclin E (Homo sapiens, UniProt P24941); assay: Kinase assay, radioactive phosphate incorporation, CDK2/cyclin E; details: 100 μM ATP, 30° C.; read-out: Kinase inhibition IC50 CDK2/cyclin E
Procedure, shortened: as §1

CDK4/cyclin D1 = CDK4/cyclin D1 (Homo sapiens, UniProt P11802); assay: Kinase assay, radioactive phosphate incorporation, CDK4/cyclin D1; details: 100 μM ATP, 30° C.; read-out: Kinase inhibition IC50 CDK4/cyclin D1
Chain of CDK4/cyclin D1 (P11802 whole entry, species assumed): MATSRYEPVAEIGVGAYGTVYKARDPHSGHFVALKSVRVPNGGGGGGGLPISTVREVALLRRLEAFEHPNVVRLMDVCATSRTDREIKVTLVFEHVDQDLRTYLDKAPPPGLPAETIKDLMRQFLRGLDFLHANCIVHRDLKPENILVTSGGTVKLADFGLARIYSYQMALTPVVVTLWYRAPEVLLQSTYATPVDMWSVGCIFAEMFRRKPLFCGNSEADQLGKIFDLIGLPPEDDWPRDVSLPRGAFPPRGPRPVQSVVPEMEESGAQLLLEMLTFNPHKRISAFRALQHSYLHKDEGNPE
Chain of CDK4/cyclin D1 (P24385 whole entry partner, species assumed): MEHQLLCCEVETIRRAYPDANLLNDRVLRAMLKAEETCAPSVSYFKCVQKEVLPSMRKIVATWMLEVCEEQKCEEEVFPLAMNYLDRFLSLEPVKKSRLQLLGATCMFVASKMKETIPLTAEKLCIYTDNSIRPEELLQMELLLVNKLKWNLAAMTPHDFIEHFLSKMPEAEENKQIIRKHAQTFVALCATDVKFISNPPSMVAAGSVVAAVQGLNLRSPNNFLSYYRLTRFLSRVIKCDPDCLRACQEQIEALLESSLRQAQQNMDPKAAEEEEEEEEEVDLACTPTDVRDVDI
Procedure, shortened: as §1

CDK9/cyclin T1 = CDK9/cyclin T1 (Homo sapiens, UniProt P50750); assay: Kinase assay, radioactive phosphate incorporation, CDK9/cyclin T1; details: 100 μM ATP, 30° C.; read-out: Kinase inhibition IC50 CDK9/cyclin T1
Chain of CDK9/cyclin T1 (P50750 whole entry, species assumed): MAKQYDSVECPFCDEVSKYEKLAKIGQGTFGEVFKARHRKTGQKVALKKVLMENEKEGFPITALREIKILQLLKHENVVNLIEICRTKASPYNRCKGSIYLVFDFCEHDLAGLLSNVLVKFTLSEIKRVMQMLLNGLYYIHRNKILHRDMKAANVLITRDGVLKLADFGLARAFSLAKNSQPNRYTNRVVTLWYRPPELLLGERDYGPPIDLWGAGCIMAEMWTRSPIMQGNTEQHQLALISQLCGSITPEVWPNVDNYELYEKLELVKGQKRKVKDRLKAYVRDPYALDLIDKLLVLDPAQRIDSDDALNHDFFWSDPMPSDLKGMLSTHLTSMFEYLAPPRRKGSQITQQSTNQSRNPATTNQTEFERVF
Chain of CDK9/cyclin T1 (O60563 whole entry partner, species assumed): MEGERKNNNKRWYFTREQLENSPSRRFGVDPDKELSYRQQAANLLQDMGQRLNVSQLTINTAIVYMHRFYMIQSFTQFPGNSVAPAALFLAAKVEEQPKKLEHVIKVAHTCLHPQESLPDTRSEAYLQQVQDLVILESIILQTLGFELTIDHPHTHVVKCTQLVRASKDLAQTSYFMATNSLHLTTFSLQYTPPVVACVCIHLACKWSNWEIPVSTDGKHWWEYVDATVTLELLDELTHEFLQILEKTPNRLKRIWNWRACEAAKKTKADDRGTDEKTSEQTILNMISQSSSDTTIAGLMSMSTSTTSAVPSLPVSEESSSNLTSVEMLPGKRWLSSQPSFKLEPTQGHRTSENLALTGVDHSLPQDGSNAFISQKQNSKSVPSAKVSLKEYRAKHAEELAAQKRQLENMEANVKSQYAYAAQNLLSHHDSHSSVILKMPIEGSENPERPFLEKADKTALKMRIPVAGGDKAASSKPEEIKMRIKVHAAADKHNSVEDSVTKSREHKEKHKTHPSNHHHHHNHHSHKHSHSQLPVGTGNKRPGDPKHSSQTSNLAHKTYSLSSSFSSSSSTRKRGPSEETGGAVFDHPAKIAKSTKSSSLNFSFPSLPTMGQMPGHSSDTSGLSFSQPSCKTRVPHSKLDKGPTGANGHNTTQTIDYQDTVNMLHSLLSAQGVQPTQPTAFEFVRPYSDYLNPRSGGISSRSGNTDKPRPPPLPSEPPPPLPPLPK
Procedure, shortened: as §1

GSK3β = GSK3β (Homo sapiens, UniProt P49841); assay: Kinase assay, radioactive phosphate incorporation, GSK3β; details: 100 μM ATP, 30° C.; read-out: Kinase inhibition IC50 GSK3β
Chain of GSK3β (P49841 whole entry, species assumed): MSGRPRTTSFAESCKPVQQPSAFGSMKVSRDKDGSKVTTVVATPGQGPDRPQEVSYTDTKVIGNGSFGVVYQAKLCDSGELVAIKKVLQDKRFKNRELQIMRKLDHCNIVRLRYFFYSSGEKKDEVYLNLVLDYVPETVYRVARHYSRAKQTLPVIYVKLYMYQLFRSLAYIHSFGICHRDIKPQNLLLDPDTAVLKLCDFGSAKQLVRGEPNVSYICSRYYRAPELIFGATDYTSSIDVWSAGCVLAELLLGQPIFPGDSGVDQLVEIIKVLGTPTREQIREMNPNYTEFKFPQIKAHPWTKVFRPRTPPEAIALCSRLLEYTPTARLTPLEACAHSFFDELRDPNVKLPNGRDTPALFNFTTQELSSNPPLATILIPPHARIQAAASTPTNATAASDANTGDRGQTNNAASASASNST
Procedure, shortened: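 Inhibition is measured as reduced transfer of radioactive phosphate to a polypeptide substrate by 2-4 μg of recombinant enzyme. Mixtures with Mg/ATP (100 μM ATP, 15 mM MgCl2, [γ-32P]-ATP) in pH 7.4 MOPS-based buffer incubate at 30° C, are stopped on ice, filtered and counted.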

Aurora-A = target: T1, Aurora-A (Homo sapiens, UniProt O14965); assay: Kinase assay, radioactive phosphate incorporation, Aurora-A; details: 100 μM ATP, 30° C.; read-out: Kinase inhibition IC50 Aurora-A
T1 sequence (O14965 1-403): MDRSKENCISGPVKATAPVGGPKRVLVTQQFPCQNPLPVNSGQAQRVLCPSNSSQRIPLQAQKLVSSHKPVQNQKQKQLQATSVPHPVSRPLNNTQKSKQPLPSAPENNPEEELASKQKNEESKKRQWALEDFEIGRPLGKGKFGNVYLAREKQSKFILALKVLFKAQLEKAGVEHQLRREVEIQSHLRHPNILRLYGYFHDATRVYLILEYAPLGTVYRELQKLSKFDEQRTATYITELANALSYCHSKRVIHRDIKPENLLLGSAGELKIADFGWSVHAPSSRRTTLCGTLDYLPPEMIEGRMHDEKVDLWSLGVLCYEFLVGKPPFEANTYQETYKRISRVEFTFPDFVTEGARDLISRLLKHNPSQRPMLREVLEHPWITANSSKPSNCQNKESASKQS
Procedure: The compounds from the examples above were investigated for their ability to inhibit the enzymatic activity of various protein kinases. This was achieved by measurement of incorporation of radioactive phosphate from ATP into appropriate polypeptide substrates. Recombinant protein kinases and kinase complexes were produced or obtained commercially. Assays were performed using 96-well plates and appropriate assay buffers (typically 25 mM β-glycerophosphate, 20 mM MOPS, 5 MM EGTA, 1 mM DTT, 1 mM Na3VO3, pH 7.4), into which were added 2-4 μg of active enzyme with appropriate substrates. The reactions were initiated by addition of Mg/ATP mix (15 mM MgCl2+100 μM ATP with 30-50 kBq per well of [γ-^32P]-ATP) and mixtures incubated as required at 30° C. Reactions were stopped on ice, followed by filtration through p81 filterplates or GF/C filterplates (Whatman Polyfiltronics, Kent, UK). After washing 3 times with 75 mM aq orthophosphoric acid, plates were dried, scintillant added and incorporated radioactivity measured in a scintillation counter (TopCount, Packard Instruments, Pangbourne, Berks, UK). Compounds for kinase assay were made up as 10 mM stocks in DMSO and diluted into 10% DMSO in assay buffer.

CDK7/cyclin H = CDK7/cyclin H (Homo sapiens, UniProt P50613); assay: Kinase assay, radioactive phosphate incorporation, CDK7/cyclin H; details: 100 μM ATP, 30° C.; read-out: Kinase inhibition IC50 CDK7/cyclin H
Chain of CDK7/cyclin H (P50613 whole entry, species assumed): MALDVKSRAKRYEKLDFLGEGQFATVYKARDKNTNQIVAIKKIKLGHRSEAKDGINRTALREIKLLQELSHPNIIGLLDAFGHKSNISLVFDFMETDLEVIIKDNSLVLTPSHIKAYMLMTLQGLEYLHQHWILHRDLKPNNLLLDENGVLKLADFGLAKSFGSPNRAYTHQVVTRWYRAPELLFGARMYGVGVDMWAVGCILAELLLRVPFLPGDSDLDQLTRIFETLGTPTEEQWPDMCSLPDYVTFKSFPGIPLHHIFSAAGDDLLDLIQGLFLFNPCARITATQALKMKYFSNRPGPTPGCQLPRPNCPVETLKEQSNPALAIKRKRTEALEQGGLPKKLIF
Chain of CDK7/cyclin H (P51946 whole entry partner, species assumed): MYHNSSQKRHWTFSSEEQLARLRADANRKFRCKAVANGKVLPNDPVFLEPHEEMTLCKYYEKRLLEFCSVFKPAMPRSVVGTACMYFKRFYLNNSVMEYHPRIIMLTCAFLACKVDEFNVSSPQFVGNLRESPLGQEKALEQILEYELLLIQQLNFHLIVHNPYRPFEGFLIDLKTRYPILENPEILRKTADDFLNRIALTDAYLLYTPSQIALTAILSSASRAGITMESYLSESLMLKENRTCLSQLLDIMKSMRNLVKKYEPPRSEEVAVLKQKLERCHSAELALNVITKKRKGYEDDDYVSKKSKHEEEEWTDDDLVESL
Procedure, shortened: as §1

Chain of CDK1/cyclin B (P06493 whole entry, species assumed): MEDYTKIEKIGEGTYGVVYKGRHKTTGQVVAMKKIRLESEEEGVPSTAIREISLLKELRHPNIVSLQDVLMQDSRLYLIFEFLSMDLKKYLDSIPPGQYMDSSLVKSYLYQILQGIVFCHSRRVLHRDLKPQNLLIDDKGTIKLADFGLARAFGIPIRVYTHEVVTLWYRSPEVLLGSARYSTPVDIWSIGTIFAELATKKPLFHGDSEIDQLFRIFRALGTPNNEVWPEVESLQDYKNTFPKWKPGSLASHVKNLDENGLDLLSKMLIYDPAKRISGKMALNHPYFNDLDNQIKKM
Chain of CDK1/cyclin B (P14635 whole entry partner, species assumed): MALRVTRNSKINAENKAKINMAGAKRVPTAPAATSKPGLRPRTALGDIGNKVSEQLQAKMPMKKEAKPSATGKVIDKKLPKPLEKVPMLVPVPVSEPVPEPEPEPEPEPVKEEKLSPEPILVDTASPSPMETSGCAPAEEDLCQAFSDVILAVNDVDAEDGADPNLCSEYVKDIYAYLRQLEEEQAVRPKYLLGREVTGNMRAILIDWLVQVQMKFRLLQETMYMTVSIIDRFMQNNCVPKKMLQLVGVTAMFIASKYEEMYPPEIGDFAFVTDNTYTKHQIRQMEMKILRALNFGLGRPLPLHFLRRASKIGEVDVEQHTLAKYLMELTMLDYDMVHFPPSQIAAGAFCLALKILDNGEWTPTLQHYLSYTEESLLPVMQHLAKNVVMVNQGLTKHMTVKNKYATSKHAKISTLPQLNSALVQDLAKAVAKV

COc1cccc(-c2ccnc(Nc3cccc(O)c3)n2)c1 [Compound 88, 3-[4-(3-Methoxy-phenyl)-pyrimidin-2-ylamino]-phenol]
IC50 (CDK1/cyclin B): 570 nM
IC50 (CDK2/cyclin A): 1400 nM
IC50 (CDK2/cyclin E): 100 nM
IC50 (CDK4/cyclin D1): 200 nM
IC50 (CDK9/cyclin T1): 5 nM
IC50 (GSK3β): 80 nM
IC50 (Aurora-A): 20 nM

O=[N+]([O-])c1cccc(Nc2nccc(-c3cccc(CO)c3)n2)c1 [Compound 91, {3-[2-(3-Nitro-phenylamino)-pyrimidin-4-yl]-phenyl}-methanol]
IC50 (CDK1/cyclin B): 590 nM
IC50 (CDK2/cyclin A): 470 nM
IC50 (CDK2/cyclin E): 60 nM
IC50 (CDK4/cyclin D1): 870 nM
IC50 (CDK7/cyclin H): 550 nM
IC50 (CDK9/cyclin T1): 0.1 nM
IC50 (GSK3β): 0.7 nM
IC50 (Aurora-A): 160 nM

COc1cccc(-c2ccnc(Nc3ccc(O)cc3)n2)c1 [Compound 98, 4-[4-(3-Methoxy-phenyl)-pyrimidin-2-ylamino]-phenol]
IC50 (CDK1/cyclin B): 1100 nM
IC50 (CDK2/cyclin A): 1400 nM
IC50 (CDK2/cyclin E): 130 nM
IC50 (CDK4/cyclin D1): 590 nM
IC50 (CDK9/cyclin T1): 6 nM
IC50 (GSK3β): 350 nM
IC50 (Aurora-A): 640 nM

O=[N+]([O-])c1cccc(Nc2nccc(-c3cccc(CN4CCCC(CO)C4)c3)n2)c1 (stereo not shown) [Compound 105, (1-{3-[2-(3-Nitro-phenylamino)-pyrimidin-4-yl]-benzyl}-piperidin-3-yl)-methanol]
IC50 (CDK1/cyclin B): 1200 nM
IC50 (CDK2/cyclin A): 350 nM
IC50 (CDK2/cyclin E): 70 nM
IC50 (CDK4/cyclin D1): 1900 nM
IC50 (CDK7/cyclin H): 80 nM
IC50 (CDK9/cyclin T1): 10 nM
IC50 (GSK3β): 10 nM
IC50 (Aurora-A): 2600 nM

COc1ccc(-c2ccnc(Nc3ccc(O)cc3)n2)cc1 [Compound 110, 4-[4-(4-Methoxy-phenyl)-pyrimidin-2-ylamino]-phenol]
IC50 (CDK1/cyclin B): 500 nM
IC50 (CDK2/cyclin A): 80 nM
IC50 (CDK2/cyclin E): 120 nM
IC50 (CDK4/cyclin D1): 1300 nM
IC50 (CDK7/cyclin H): 1500 nM
IC50 (CDK9/cyclin T1): 20 nM
IC50 (Aurora-A): 400 nM

CN(c1cccc(-c2ccnc(Nc3cccc([N+](=O)[O-])c3)n2)c1)S(C)(=O)=O [Compound 129, N-Methyl-N-{3-[2-(3-nitro-phenylamino)-pyrimidin-4-yl]-phenyl}-methanesulfonamide]
IC50 (CDK1/cyclin B): 830 nM
IC50 (CDK2/cyclin A): 440 nM
IC50 (CDK2/cyclin E): 70 nM
IC50 (CDK4/cyclin D1): 2600 nM
IC50 (CDK7/cyclin H): 650 nM
IC50 (CDK9/cyclin T1): 20 nM
IC50 (GSK3β): 130 nM
IC50 (Aurora-A): 270 nM

CN(c1cccc(-c2ccnc(Nc3cccc(O)c3)n2)c1)S(C)(=O)=O [Compound 130, N-{3-[2-(3-Hydroxy-phenylamino)-pyrimidin-4-yl]-phenyl}-N-methyl-methanesulfonamide]
IC50 (CDK1/cyclin B): 960 nM
IC50 (CDK2/cyclin A): 620 nM
IC50 (CDK2/cyclin E): 220 nM
IC50 (CDK4/cyclin D1): 1300 nM
IC50 (CDK7/cyclin H): 1300 nM
IC50 (CDK9/cyclin T1): 4 nM
IC50 (GSK3β): 50 nM
IC50 (Aurora-A): 120 nM

CN(c1cccc(-c2ccnc(Nc3ccc(O)cc3)n2)c1)S(C)(=O)=O [Compound 131, N-{3-[2-(4-Hydroxy-phenylamino)-pyrimidin-4-yl]-phenyl}-N-methyl-methanesulfonamide]
IC50 (CDK1/cyclin B): 2100 nM
IC50 (CDK2/cyclin A): 450 nM
IC50 (CDK2/cyclin E): 180 nM
IC50 (CDK4/cyclin D1): 2500 nM
IC50 (CDK7/cyclin H): 1400 nM
IC50 (CDK9/cyclin T1): 10 nM
IC50 (GSK3β): 130 nM
IC50 (Aurora-A): 140 nM
